Measured values reported in patent US11648254B2 (Kumquat Biosciences Inc., priority 2021, dated 2023).
Where two headings read alike, the source gives them in different places.

Assays:
[1] = biological target: SOS1 (Homo sapiens (Human), UniProt Q07889); test: Ras-SOS interaction assay (HTRF); assay type: biochemical
[2] = test system: MIA PaCa-2 cells (K-Ras G12C); test: Ras-SOS cellular growth inhibition assay (CellTiter-Glo, 3D); assay type: cell-based; details: Homo sapiens
How it was run: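 MIA PaCa-2 cells grown in ultra-low-attachment plates (3D) in DMEM/Ham's F12 with 10% FCS and 2.5% horse serum, treated the day after seeding with a 9-point 3-fold compound series for about 5 days. Viability by CellTiter-Glo luminescence; IC50 from four-parameter fit.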

[3] = test system: NCI-H1975 cells (EGFR T790M L858R); test: EGFR-SOS cellular inhibition assay (CellTiter-Glo, 3D); assay type: cell-based; details: Homo sapiens
[4] = K-RasG13D utilized, read-out: IC50 inhibition of SOS
[5] = K-RasG13D, read-out: IC50 value against SOS1
[6] = MIA PaCa-2, 120 h, MIA PaCa-2, 3D proliferation, about 5 days, read-out: Bio-Cell-Prolif-3D (MiaPaca2 IC50)
[7] = MIA PaCa-2, MIA PaCa-2, read-out: IC50 in inhibiting MIA PaCa-2 cell growth
[8] = 120 h, NCI-H1975, 3D proliferation, about 5 days, read-out: Bio-Cell-Prolif-3D (H1975 IC50)
[9] = NCI-H1975, EGFR T790M L858R, read-out: IC50 in inhibiting growth of NCI-H1975 cell line

Chain of SOS1 (Q07889 564-1049): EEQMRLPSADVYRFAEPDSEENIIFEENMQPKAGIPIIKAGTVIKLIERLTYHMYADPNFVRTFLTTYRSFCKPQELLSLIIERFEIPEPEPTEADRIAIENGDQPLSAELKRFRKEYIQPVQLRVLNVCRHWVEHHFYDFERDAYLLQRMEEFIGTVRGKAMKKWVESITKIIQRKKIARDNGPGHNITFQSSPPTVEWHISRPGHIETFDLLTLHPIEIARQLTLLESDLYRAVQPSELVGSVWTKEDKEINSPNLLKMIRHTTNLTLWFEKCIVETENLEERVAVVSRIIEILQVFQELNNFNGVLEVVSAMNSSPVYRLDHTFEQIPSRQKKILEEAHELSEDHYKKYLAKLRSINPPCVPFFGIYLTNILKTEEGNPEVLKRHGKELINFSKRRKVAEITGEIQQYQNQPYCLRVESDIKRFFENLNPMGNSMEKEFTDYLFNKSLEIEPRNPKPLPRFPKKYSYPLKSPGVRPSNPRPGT

Row | Structure (SMILES) | IC50 [1, 4] | IC50 [1, 5] | IC50 [2, 6] | IC50 [2, 7] | IC50 [3, 8] | IC50 [3, 9]
1 | CC(C)N1CCN(c2cc3c(N[C@H](C)c4cccc(C(F)(F)F)c4F)ncnc3nc2Cl)CC1 [Compound 394, (R)-7-chloro-N-(1-(2-fluoro-3-(trifluoromethyl)phenyl)ethyl)-6-(4-isopropylpiperazin-1-yl)pyrido[2,3-d] pyrimidin-4-amine] | < 100 nM | < 50 nM | ≤ 1000 nM | < 500 nM | ≤ 1000 nM | < 500 nM
2 | Cc1nc(N[C@H](C)c2cccc(C(F)F)c2F)c2cc(C3(C#N)CC3)c(N3CCOCC3)nc2n1 [Compound 396, (R)-1-(4-((1-(3-(difluoromethyl)-2-fluorophenyl)ethyl)amino)-2-methyl-7-morpholinopyrido[2,3-d]pyrimidin-6-yl)cyclopropane-1-carbonitrile] | < 100 nM | < 50 nM | ≤ 1000 nM | < 500 nM | ≤ 1000 nM | 
3 | Cc1nc(N[C@H](C)c2cccc(C(F)F)c2F)c2cc(N3CCN(C)CC3)c(OCC3COC3)nc2n1 [Compound 397, (R)-N-(1-(3-(difluoromethyl)-2-fluorophenyl)ethyl)-2-methyl-6-(4-methylpiperazin-1-yl)-7-(oxetan-3-ylmethoxy)pyrido[2,3-d]pyrimidin-4-amine] | < 100 nM | < 50 nM | ≤ 1000 nM | < 500 nM | ≤ 1000 nM | < 500 nM
4 | Cc1nc(N[C@H](C)c2cccc(C(F)F)c2F)c2cc(C3CCS(=O)(=O)CC3)c(NC3COC3)nc2n1 [Compound 401, (R)-4-(4-((1-(3-(difluoromethyl)-2-fluorophenyl)ethyl)amino)-2-methyl-7-(oxetan-3-ylamino)pyrido[2,3-d]pyrimidin-6-yl)tetrahydro-2H-thiopyran 1,1-dioxide] | < 100 nM | < 50 nM | 1000 to 10000 nM |  | ≤ 1000 nM | 
5 | Cc1nc(N[C@H](C)c2cccc(C(F)F)c2F)c2cc(C3CCN(C(C)C)CC3)c(NC3COC3)nc2n1 [Compound 407, (R)-N4-(1-(3-(difluoromethyl)-2-fluorophenyl)ethyl)-6-(1-isopropylpiperidin-4-yl)-2-methyl-N7-(oxetan-3-yl)pyrido [2,3-d]pyrimidine-4,7-diamine] | < 100 nM | < 50 nM | 1000 to 10000 nM |  | 1000 to 10000 nM | 
6 | COc1nc2ncnc(N[C@H](C)c3cccc(C(F)F)c3F)c2cc1C1CCN(C)CC1 [Compound 412, (R)-N-(1-(3-(difluoromethyl)-2-fluorophenyl)ethyl)-7-methoxy-6-(1-methylpiperidin-4-yl)pyrido[2,3-d] pyrimidin-4-amine] | < 100 nM | < 50 nM | ≤ 1000 nM | < 500 nM | ≤ 1000 nM | < 500 nM
7 | CC(C)N1CCN(c2cc3c(N[C@H](C)c4cccc(C(F)F)c4F)ncnc3nc2OC2COC2)CC1 [Compound 413, (R)-N-(1-(3-(difluoromethyl)-2-fluorophenyl)ethyl)-6-(4-isopropylpiperazin-1-yl)-7-(oxetan-3-yloxy)pyrido[2,3-d] pyrimidin-4-amine] | < 100 nM | < 50 nM | ≤ 1000 nM | < 500 nM | ≤ 1000 nM | < 500 nM
8 | CCN1CCN(c2cc3c(N[C@H](C)c4cccc(C(F)F)c4F)nc(C)nc3nc2OC2COC2)CC1 [Compound 415, (R)-N-(1-(3-(difluoromethyl)-2-fluorophenyl)ethyl)-6-(4-ethylpiperazin-1-yl)-2-methyl-7-(oxetan-3-yloxy) pyrido[2,3-d]pyrimidin-4-amine] | < 100 nM | < 50 nM | ≤ 1000 nM | < 500 nM | ≤ 1000 nM | < 500 nM
9 | COc1nc2nc(C)nc(N[C@H](C)c3cccc(C(F)(F)C4CCN(C(C)C)CC4)c3)c2cc1N1CCN(C(C)C)CC1 [Compound 418, (R)—N-(1-(3-(difluoro(1-isopropylpiperidin-4-yl)methyl)phenyl)ethyl)-6-(4-isopropylpiperazin-1-yl)-7-methoxy-2-methylpyrido[2,3-d]pyrimidin-4-amine] | < 100 nM | < 50 nM | ≤ 1000 nM | < 500 nM | ≤ 1000 nM | < 500 nM

Second part, the molecule after the results:

Row | IC50 [1, 4] | IC50 [1, 5] | IC50 [2, 6] | IC50 [2, 7] | IC50 [3, 8] | IC50 [3, 9] | Structure (SMILES)
10 | < 100 nM | < 50 nM | ≤ 1000 nM | < 500 nM | ≤ 1000 nM | < 500 nM | Cc1c([C@@H](C)Nc2ncnc3nc(Cl)c(N4CCN(C(C)C)CC4)cc23)cccc1C(F)(F)F [Compound 395, (R)-7-chloro-6-(4-isopropylpiperazin-1-yl)-N-(1-(2-methyl-3-(trifluoromethyl)phenyl)ethyl)pyrido [2,3-d]pyrimidin-4-amine]
11 | < 100 nM | < 50 nM | 1000 to 10000 nM |  | ≤ 1000 nM |  | CCN1CCC(c2cc3c(N[C@H](C)c4cccc(C(F)F)c4F)nc(C)nc3nc2OCCN(C)C)CC1 [Compound 399, (R)-N-(1-(3-(difluoromethyl)-2-fluorophenyl)ethyl)-7-(2-(dimethylamino)ethoxy)-6-(1-ethylpiperidin-4-yl)-2-methylpyrido[2,3-d] pyrimidin-4-amine]
12 | < 100 nM | < 50 nM | 1000 to 10000 nM |  | 1000 to 10000 nM |  | CNCCOc1nc2nc(C)nc(N[C@H](C)c3cccc(C(F)F)c3F)c2cc1C1CCN(C(C)C)CC1 [Compound 404, (R)-N-(1-(3-(difluoromethyl)-2-fluorophenyl)ethyl)-6-(1-isopropylpiperidin-4-yl)-2-methyl-7-(2-(methylamino)ethoxy)pyrido[2,3-d] pyrimidin-4-amine]
13 | < 100 nM | < 50 nM | ≤ 1000 nM | < 500 nM | ≤ 1000 nM | < 500 nM | CNCCOc1nc2nc(C)nc(N[C@H](C)c3cccc(C(F)F)c3F)c2cc1N1CCN(C(C)C)CC1 [Compound 406, (R)-N-(1-(3-(difluoromethyl)-2-fluorophenyl)ethyl)-6-(4-isopropylpiperazin-1-yl)-2-methyl-7-(2-(methylamino)ethoxy)pyrido[2,3-d] pyrimidin-4-amine]
14 | < 100 nM | < 50 nM | ≤ 1000 nM | < 500 nM | ≤ 1000 nM | < 500 nM | Cc1nc(N[C@H](C)c2cccc(C(F)F)c2F)c2cc(C3CCN(C(C)C)CC3)c(OC3CN(C)C3)nc2n1 [Compound 410, (R)-N-(1-(3-(difluoromethyl)-2-fluorophenyl)ethyl)-6-(1-isopropylpiperidin-4-yl)-2-methyl-7-((1-methylazetidin-3-yl)oxy)pyrido[2,3-d]pyrimidin-4-amine]
15 | < 100 nM | < 50 nM | ≤ 1000 nM | < 500 nM | ≤ 1000 nM | < 500 nM | Cc1nc(N[C@H](C)c2cccc(C(F)F)c2F)c2cc(N3CCN(C)CC3)c(OC3COC3)nc2n1 [Compound 411, (R)-N-(1-(3-(difluoromethyl)-2-fluorophenyl)ethyl)-2-methyl-6-(4-methylpiperazin-1-yl)-7-(oxetan-3-yloxy)pyrido[2,3-d]pyrimidin-4-amine]
16 | < 100 nM | < 50 nM | ≤ 1000 nM |  | ≤ 1000 nM | < 500 nM | CC(C)N1CCN(c2cc3c(N[C@H](C)c4cccc(C(F)F)c4F)ncnc3nc2OC2CN(C)C2)CC1 [Compound 414, (R)-N-(1-(3-(difluoromethyl)-2-fluorophenyl)ethyl)-6-(4-isopropylpiperazin-1-yl)-7-((1-methylazetidin-3-yl)oxy)pyrido [2,3-d]pyrimidin-4-amine]
